Laboratory results from patent publication US12662707B2, “MYC amplification drives resistance to pan-RAS inhibitors in pancreatic cancer” (The Trustees of Columbia University in the City of New York, priority 2024, dated 2026).

How the values were obtained:
[1] = RMC-7977 levels in KPCY allograft tumor tissue; assay type: in vivo; details: C57Bl/6, mouse, oral, 10 mg/kg
Protocol: Body weights were measured twice a week during the study. Tissue was harvested either at 4 hours or 24 hours after last dose and preserved as previously described (See Xenograft studies section). Whole blood, tumor, colon and skin tissue concentrations of RMC-7977 were determined using liquid chromatography-tandem mass spectrometry (LC-MS/MS) methods. […] After thorough mixing and centrifugation, the supernatant was directly analyzed on a Sciex 6500+ triple quadrupole mass spectrometer equipped with an ACQUITY or Shimadzu UPLC system. An ACQUITY UPLC BEH C18 or C4 […] (2.1×50 mm) column was used with gradient elution for compound separation. RMC-7977 and IS (verapamil or terfenadine) were detected by positive electrospray ionization using multiple reaction monitoring (RMC-7977: m/z 865.4/706.4 or m/z 865.3/833.5; verapamil: m/z 455.2/164.9; terfenadine: m/z 472.3/436.4). […] BA analysis on blood and tissue samples from xenograft models was run at Wuxi AppTec. BA analysis on blood and tissue samples from allograft models and GEMM was run at Revolution Medicines.

[2] = Pharmacokinetics in KPF/FC mice (tumor and blood); assay type: in vivo, mouse
Protocol: Tumor formation in KPF/FC (KrasLSL.G12D/+; p53flox/flox; Pdx1-Cre) mice was monitored by bi-weekly palpations until the detection of a mass, which was then confirmed by ultrasound. Tumor-bearing mice were randomized and assigned into groups (n=3/dose/timepoint). Single dose of RMC-7977 was administered orally at 10 mg/kg, 25 mg/kg and 50 mg/kg. The same vehicle formulation was used for the control group. Whole blood and tissue (tumors and colons) were harvested at indicated time points preserved as previously described (See Xenograft studies section).
Whole blood, tumor, colon and skin tissue concentrations of RMC-7977 were determined using liquid chromatography-tandem mass spectrometry (LC-MS/MS) methods. Tissue samples were homogenized with a 5× or 10× volume of homogenization buffer (methanol/15 mM PBS (1:2; v:v) or 15 mM PBS with 10% methanol). […] After thorough mixing and centrifugation, the supernatant was directly analyzed on a Sciex 6500+ triple quadrupole mass spectrometer equipped with an ACQUITY or Shimadzu UPLC system. […] RMC-7977 and IS (verapamil or terfenadine) were detected by positive electrospray ionization using multiple reaction monitoring (RMC-7977: m/z 865.4/706.4 or m/z 865.3/833.5; verapamil: m/z 455.2/164.9; terfenadine: m/z 472.3/436.4). The lower limit of quantification was 0.5 ng/mL or 2.0 ng/mL for blood, tumor, and other tissue. […]

CC3+ apoptotic cells = assay: CC3 IHC in Capan-1 xenograft model (tumor, colon, skin); assay type: in vivo, mouse
Protocol: Studies were terminated early if tumor burden reached humane endpoint. Body weights were collected twice a week during the study. Means±s.e.m were plotted in the waterfall plots. For the single-dose pharmacokinetic/pharmacodynamic (PK/PD) study, mice were randomized and assigned into groups (n=3-6/dose/timepoint). […] Sakura, 4583) solution or snap-frozen in LN2 for further analysis. Whole blood was transferred into K2EDTA Microtainer tubes (BD, 365974), incubated for 5 minutes and snap-frozen in LN2. To stain tissues collected from the Capan-1 xenograft model, a similar protocol was used with the following changes. Sections were stained using a Leica BOND automated staining system and primary antibodies were detected with the Leica BOND Polymer detection kit (3-P—PV6119). Stained slides were scanned and digitized with a 3DHistotech Pannoramic whole slide scanner at 20× magnification. Image analysis was performed using HALO software from Indica Labs.

[3] = test system: autochthonous KPC pancreatic tumors; details: 50 mg/kg q.o.d.
Protocol: For survival study, KPC mice with 4-7 mm diameter tumors (as measured by ultrasound) were enrolled and treated every other day with Vehicle (n=9) or RMC-7977 (50 mg/kg; n=13). Animal health status and weight were checked daily and ultrasounds were performed every third day to monitor tumor growth. The survival end point was determined by overall health criteria scoring, where end point is determined by a score of 5 or greater based on the following criteria: • Moribund—immediate euthanasia • Abdominal distention due to hemorrhagic ascites—5 pts • Mild difficulty beathing—5 pts • Hypothermia—5 pts • Abdominal distention due to chylous ascites—3 pts • Loss of over 20% enrollment body weight—3 pts • Failure of grasp test—3 pts Jaundice or pallor—3 pts • Weak grasp test—2 pts • Failure to interact with other mice—1 pt • Hunched—1 pt • Pilorection/failure to groom—1 pt
Additional notes were made to better characterize the cause of death upon necropsy, including the presence of macro liver and/or lung metastases, jaundice, and tumor-mediated GI obstructions. Survival is denoted as Kaplan-Meier survival curves compared with a log-rank, Mantel-Cox test. Mice that reached endpoint criteria were sacrificed either at 4 or 24 hours after last dose in a manner consistent with IACUC standards and our own criteria scoring. Tissue was collected at time of necropsy for further analysis.

[4] = test system: autochthonous KPC pancreatic tumors; assay: One-week study in KPC mice; assay type: in vivo, mouse; details: 50 mg/kg q.o.d.
Protocol: Tumor formation in KPC mice was monitored by bi-weekly palpation. […] Treatments were performed every other day via oral gavage for 1 week. […] Following two consecutive ultrasounds, RMC-7977-treated animals were sacrificed either 4 (n=7) or 24 hours (n=4) after last dose and Vehicle-treated animals were sacrificed between 4-24 hours post last dose. Tissue was harvested and preserved as previously described (See Xenograft studies section). Additional group of KPC mice was also treated with a single dose of RMC-7977 (n=10) or Vehicle (n=3) and tissues were harvested at 4 or 24 hours post dose as previously described.

## CCn1c(-c2cc(N3CCN(C4CC4)CC3)cnc2[C@H](C)OC)c2c3cc(ccc31)-c1csc(n1)C[C@H](NC(=O)[C@H]1[C@@H]3COC[C@@H]31)C(=O)N1CCC[C@H](N1)C(=O)OCC(C)(C)C2 [RMC-7977]
[1]
  half-life: 3.5 h
[2]; KPF/FC mice
  exposure in blood and PDAC tumors compared with CDX tumor-bearing BALB/c mice: lower
[2]; KPF/FC tumors
  half-life (t1/2) in KPF/FC tumors compared to CDX tumors: shorter half-life
CC3+ apoptotic cells; Capan-1 CDX tumors
  time of peak of CC3+ apoptotic cells post-dose: 8 h
CC3+ apoptotic cells; Capan-1 CDX tumors, single dose
  CC3+ apoptotic cells in tumors relative to vehicle: notable increase
CC3+ apoptotic cells; tumor-bearing animals, any timepoint
  apoptotic cells in colon or skin: few apoptotic cells
[3]
  body weights compared with control KPC mice: similar
  tumor response by 3D-ultrasound: tumor stabilizations or regressions
[3]; KPC mice
  increase in median survival compared to controls: 3.5 fold
[4]
  impact on animal weight: little impact
[4]; KPC, 129S4/SvJae
  tumor response: regressions in most tumors
